In paper PMC13242511, “Disrupting Notch signalling by a small molecule inhibiting dihydroorotate dehydrogenase activity” (Scientific Reports, 2026):
Several values for one entry are separate records, joined by “and”; a condition that tells them apart may be missing. Equal values may be shown once. Read-outs that look alike come from different tables or passages of the source.

Tests used:
Assay type in all cases: cell-based
[1] = test system: C2C12 cells; test: C2C12 myogenic assay; set-up: key to myogenic assay: + indicates that the compound had an effect; -: − indicates that there was no significant effect in the respective assay; key to mean fusion index: ratio of nuclei fused per area to total nuclei in field; details: for mean MFI / ratio MFI/MBI: MYH4; for ratio nuclei % / ratio MFI/MBI: single images; for myogenic diff.: overview in comparison to compound C, Supplemental Fig. 9; for MYH4 (MFI) / fusion index, % of DMSO control: Fig. 5, equals mean of the two '% of control' values of the 4th table; for myogenic assay: summary Fig. 8E
Source text: To corroborate their status as Notch inhibitors, we tested four of the five compounds (A, C, D, E) in an orthogonal assay for Notch function. Notch signalling plays an important role in myogenic differentiation, and blocking Notch signalling promotes myogenic differentiation in the myoblast cell line C2C12[27] (Fig. 5A). C2C12 cells can be maintained as myoblasts but upon serum starvation spontaneously differentiate to MYH4-positive multinucleated myotubes, a process which is accelerated by Notch blockade.
8000 C2C12 cells were seeded on gelatin (0.1%, Sigma-Aldrich, cat #G2500) coated cover slides (BD Bioscience) and cultivated in proliferation medium. For gelatin coating, 8-well cover slide chambers (BD Bioscience) were incubated for 60 min with 0.1% gelatin in PBS. The remaining liquid was aspirated, and gelatin was allowed to dry for 24 h. Cover slides were stored at 4 °C until use. Upon reaching 85% confluence cell culture medium was exchanged to differentiation medium to enhance differentiation into myocytes/myotubes. Cells were then treated with 10 µM of the respective compound for five days and DMSO-treated cells served as a base-line control. Next, cells were washed with 1 × cold PBS (ThermoFisher, cat #10010023) fixed with 4% paraformaldehyde (PFA, Sigma-Aldrich, cat #1.00496) in PBS for 10 min at room temperature and washed again with 1 × PBS. Fixed cells were either stored at 4 °C in PBS or directly processed for immunocytochemistry staining: For immunocytochemistry, cells were permeabilized for 10 min in 0.1% TritonX-100 / PBS, then washed in PBS and unspecific bindings sites were blocked in protein free blocking solution (DAKO, cat # × 0909) for 30 min at room temperature, followed by two times washing in PBS. Then, cells were incubated with primary antibody MYH4 (ThermoFisher) in blocking solution and 0.1% TritonX-100 in PBS for 1 h at room temperature. Next, cells were washed three times in PBS and incubated with secondary Alexa fluorophore coupled antibody (Invitrogen) in a 1:400 dilution. Labeling of F-actin filaments was conducted by phalloidin-TRITC (Sigma-Aldrich, cat # P1951) in a 1:2500 dilution. Cells were washed three times in PBS and incubated with DAPI (BD Bioscience cat # 564907) for 5 min at room temperature to stain DNA/nuclei. Finally, slides were fixed with mounting medium (ProLong Antifade mounting medium, ThermoFisher, cat #P36934). Bright field and immunocytochemistry images were taken using the SP8 LSM (Leica) at different magnifications and images were recorded as Z-stacks. Images were processed using the FijI (ImageJ) software. As controls, wells with and without differentiation medium were also stained to set the baseline and contrast the differences and stainings of cells with only secondary antibodies were used as negative controls to assess cross-reactivity and background staining. For calculating the MYH4 median fluorescence intensity (MFI) images have been converted into 8-bit greyscale and a standard color threshold was applied (ImageJ). Next, MFI signals per area were measured using ImageJ and divided by the median background intensity (MBI). The nuclei fusion index was calculated as the ratio of nuclei fused per area divided by the total number of nuclei in the field. A minimum of three images has been recorded for the calculations, and two replicate experiments were conducted. For calculations of MFI and fusion index see Supplemental Table 5.

[2] = test system: T-ALL and breast cancer cell lines; test: Growth inhibition in tumour cell lines (panel, cell lines not named singly); set-up: key to tumor cell growth: + indicates that the compound had an effect; -: − indicates that there was no significant effect in the respective assay; details: for viability assay: overview in comparison to compound C, Supplemental Fig. 9; for IC50: six days, read-out: IC50, metabolic activity; for tumor cell growth: summary Fig. 8E
Source text: We next investigated whether compounds A-E affected growth and viability of cell lines from T-cell acute lymphoblastic leukaemia (T-ALL) and breast cancer, two tumour types in which elevated Notch signalling has been implicated in tumorigenesis. […] When testing analogues of compounds B and C, five of the seven B analogues and one of the two C analogues produced dose–response curves and IC50s, which however were higher compared to the original hits (Supplemental Fig. 5A; IC50s are presented in Supplemental Table 6).
Compounds were spotted on white 384-well tissue culture plates (Greiner, cat #781080) using an Echo 525 Acoustic liquid handler (Labcyte). Cells were grown to 80% confluence, detached if required, counted and 20 µl containing 2000–4000 cells per well was then seeded in each well and cultivated for three (4,000 cells seeded) and six days (2,000 cells seeded). […] Luciferase activity (reading out metabolic activity) was determined using the CellTiter-Glo 2.0 kit (CTG, Promega, cat #G9242) following the manufacturer’s instructions and luminescence was measured on a SpectraMaxi3 or Varioscan plate reader (Molecular Devices, Thermofisher).

[3] = test system: MDA-MB-231 cells; test: Three dose response gene expression analysis (qRT-PCR); details: 0.1, 1 and 10 µM, 24 h
Method: (§1) Total RNA from cell lines was isolated using the RNeasy Mini kit (cat #74104, Qiagen), according to the manufacturer’s instructions. qRT-PCR was performed as described elsewhere[51] with some minor modifications: RNA was reverse transcribed to cDNA using iScript Reverse Transcription Supermix (cat # 1708841, Bio-rad). cDNA was then diluted 1:5 in nuclease free H20. qRT-PCR was performed on a C1000 Touch thermal cycler (Bio-rad) and gene expression was detected with SsoAdvanced Universal SYBR Green Supermix (cat # 1725274, Bio-rad). Gene expression was determined by normalizing to GAPDH mRNA expression levels and fold expression change was calculated using the ΔΔCT method (ΔΔCT = ΔCt sample − Δct control). Primers used in qPCR are shown in Supplemental Table 9.
(§2) Adherent breast cancer cells were seeded in 24-well cell culture plates (ThermoFisher, Nunc, Delta surface, cat #144530) and T-ALL cells growing in suspension (Jurkat, RPMI-8402) were seeded in non-adherent 24-well plates (ThermoFisher, Nunc, cat […]). 60.000 cells were seeded and treated with 0.1, 1 and 10 µM of each compound. […] Cells were harvested 24 h post treatment and RNA isolation and gene expression analysis (qRT-PCR) was performed as described above.

[4] = test system: T-ALL cells (Jurkat, RPMI-8402); test: as above; details: 0.1, 1 and 10 µM, 24 h; for c-MYC expression: T-ALL cell lines; for HES1 and c-MYC expression: T-ALL cells
Method: as §1, §2

[5] = test system: Notch downstream genes in tumour cell lines; test: Three dose response gene expression analysis (qRT-PCR), panel of cell lines; set-up: key to gene expression: + indicates that the compound had an effect; -: − indicates that there was no significant effect in the respective assay; details: for Notch targets: overview in comparison to compound C, Supplemental Fig. 9; for gene expression: summary Fig. 8E
Method: as §1, §2

[6] = 10 µM, five days, DMSO ctrl = 100, experiments #1 and #2
[7] = 10 µM, five days, experiments #1 and #2
[8] = 10 µM, five days, experiments #1 and #2, listed as GSI

Row | Structure (SMILES) | expression of the differentiation marker MYH4 ([1]; 10 µM, five days) | mean MFI in % of control [1, 6] | mean MFI [1, 7] | mean fusion index [1, 7] | ratio nuclei % [1, 7] | myogenic diff. [1] | viability assay [2] | c-MYC expression [3] | Notch targets [5] | MYH4 (MFI) ([1]; 10 µM, five days) | fusion index, % of DMSO control ([1]; 10 µM, five days) | ratio MFI/MBI [1, 7] | myogenic assay [1] | IC50 ([2]; all cell lines (breast cancer)) | tumor cell growth [2] | HES1 expression [3] | HES4 expression [3] | transcript levels of the Notch ligand Jagged1 [3] | gene expression [5] | HES1 and c-MYC expression [4] | further results
1 | CC(C)(C)c1ccc(Oc2ccc(N)cn2)cc1 [CB-103, reference compound] | increased MYH4 levels, although not reaching statistical significance | 378.0 % of control and 227.3 % of control | 3.6 and 4.6 | 5.7 and 3.1 | 5.0% and 6.3% and 5.7% and 3.1% | no | context specific | trend towards upregulation | condition dependent |  |  |  |  |  |  |  |  |  |  |  | c-MYC expression [4]: reduced
2 | C[C@H](NC(=O)Cc1cc(F)cc(F)c1)C(=O)N[C@H](C(=O)OC(C)(C)C)c1ccccc1 [DAPT, reference compound] |  |  |  |  |  |  | context specific |  |  |  |  |  |  |  |  |  |  |  |  |  | 
3 | CC(C)(C(=O)NCC(F)(F)C(F)(F)F)C(=O)N[C@@H]1C(=O)Nc2ccccc2-c2ccccc21 [RO4929097, reference compound] | elevated expression |  |  |  |  | yes | context specific | did not reduce | condition dependent |  |  |  |  |  |  |  |  |  |  |  | mean MFI in % of control ([1]; 10 µM, five days, DMSO ctrl = 100, experiments #1 and #2, listed as GSI): 296.5 % of control and 351.1 % of control; mean MFI [1, 8]: 5.5 and 3.6; mean fusion index [1, 8]: 6.7 and 4.2; ratio nuclei % [1, 8]: 6.3% and 6.4% and 7.6% and 4.9% and 3.4%; c-MYC expression [4]: consistently reduced; HES1 and HES4 target gene expression ([5]; across the panel of cell lines): consistently reduced
4 | CCc1c(C(=O)N(C)Cc2cnn(C(C)C)c2)[nH]c2ccccc12 [compound A] | elevated expression | 469.2 % of control | 7.4 and 5.9 | 4.1 and 7.3 | 2.9% and 4.4% and 7.7% and 8.1% and 6.0% and 5.0% |  |  |  |  | 476.6 | 210.8 | 6.1 and 6.4 and 7.3 and 7.5 and 5.2 | + | > 10 µM | - | downregulated | reduced | reduced | - |  | activity at 10 µM ([1]; Mus musculus, C2C12, 120 h, 10 µM, five days, DMSO ctrl = 100, experiments #1 and #2, read-out: mean MFI in % of control): 484%
5 | Cc1ccc2[nH]c3c(c2c1)CCOC31CCN(Cc2ccccc2-c2ccccc2)CC1 [compound B] |  |  |  |  |  |  |  |  |  |  |  |  | - |  | + |  | reduced | reduced | + | dose-dependent downregulation | 
6 | COc1cccc(CNc2ccc(N3CCCCC3)cc2)c1OCc1cccs1 [compound C] | elevated expression | 343.9 % of control and 318.1 % of control | 4.2 | 5.3 | 3.3% and 7.3% | yes | context specific | downregulation | condition dependent | 331.0 | 268.7 | 4.0 and 4.4 | + |  | + |  | upregulated |  | + | dose-dependent downregulation | IC50 ([2]; Homo sapiens, the other breast cancer cell lines (other than MDA-MB-468)): > 10 µM
7 | NC(=O)c1c(NC(=O)NCc2cccnc2)sc2c1CCC2 [compound D] | did not produce elevated MYH4 levels |  |  |  |  |  |  |  |  | 108.7 | 153.2 |  | - | > 10 µM | - | downregulated | reduced | reduced | + | dose-dependent downregulation | 
8 | Cc1nn(-c2nc3ccccc3s2)c(O)c1C1OC(=O)c2ccccc21 (stereo not shown) [compound E] | elevated expression | 561.7 % of control and 394.0 % of control | 6.9 and 6.2 | 6.2 and 7.6 | 5.9% and 6.4% and 6.2% and 7.9% and 6.8% and 8.0% |  |  |  |  | 477.8 | 290.1 | 6.3 and 6.7 and 7.6 and 5.1 and 6.8 | + | > 10 µM | - | downregulated |  | reduced | + | dose-dependent downregulation | 
